Laboratory results taken from patent US20100152225A1, “HYDROGENATED PYRIDO [4,3-B] INDOLES SUCH AS DIMEBON FOR TREATING CANINE COGNITIVE DYSFUNCTION SYNDROME” (priority 2006, published 2010).
Entries after “also recorded” stand apart in the source; their conditions may differ.

Key:
dogs = dogs with CCDS; reported in FDA Consumer Magazine 2000; cited from earlier work
Beagle Dogs [1] = experiment: Day Night Activity (Actiwatch day-night activity rhythms); format: in vivo, Canine
Procedure: (§1) Dogs were weighed prior to study initiation. Capsules containing dimebon were prepared for each dog according to weight. The following doses of dimebon were used: 2, 6 and 20 mg/kg. Technicians not otherwise involved in the study prepared the capsules. During the control phase of the study, subjects were administered empty gelatine capsules. The test and control articles were administered to the dogs PO within meatballs of moist dog food once daily. Individual subjects were administered the capsule at the same time on each treatment day.
(§2) The design of the study consisted of four 7 day test blocks (a test block refers to the 3 day washout period combined with the 4 day treatment/testing period). The first test block was a control and no subject received treatment during those seven days. Subsequently, the study then followed a Latin-square design, in which all of the subjects were tested at all the three dose levels of the test article in a different order (see Table 3 below). To accomplish this, the twelve subjects were divided into six groups of two subjects balanced for sex and age to the extent possible.
At the start of the study, an Actiwatch collar was placed on each dog and the collar remained on for the study duration of the study. All behavioral testing followed previously established protocols. […]
To assess changes in activity linked to the treatment condition, hourly activity over a five hour period after dosing was calculated. The data were then analyzed with a repeated measures analysis of variance (ANOVA), with time post dosing (1-5 hours), treatment days (1-4 for each condition) and dose (control, 2, 6, and 20 mg/kg) as within subject variables. […] To examine day night-activity levels, day and night activity levels were calculated for each 24-hr period. The data were first analyzed with a repeated measures ANOVA, with dose (control, 2, 6, and 20 mg/kg), treatment day (1-4 for each condition), and phase (day and night) as within-subject variables. […]
Post-dose activity patterns and twenty-four hour activity rhythms were assessed using the Actiwatch method, which detects alterations in activity and changes in phase of the activity cycle as described previously (Siwak et al. (2003) Circadian Activity Rhythms in Dogs Vary with Age and Cognitive Status. Behavioral Neuroscience, 111:813-824). Briefly, general activity patterns were monitored for 28 continuous days using the Mini-Mitter® Actiwatch-16® activity monitoring system (Mini-Mitter Co., Inc., Bend, Oreg.) adapted for dogs. […]
The day/night activity data were analyzed with a repeated-measures ANOVA, with dose, wash-in day, and phase as within-subject variables and test order as a between-subject variable.

Beagle Dogs [2] = experiment: General Activity Test (Actiwatch post-dose activity); format: in vivo, Canine; details: for activity as a function of dose and treatment day: FIG. 2, suggestion of a drug effect
Procedure: as §1, §2
At the start of the study, an Actiwatch collar was placed on each dog and the collar remained on for the study duration of the study. All behavioral testing followed previously established protocols. For behavioral tests conducted in the open field arena, data analyses were conducted using the DogAct behavioral software (CanCog Technologies Inc., Toronto, ON, Canada). Actiware-Rhythm® software was used to obtain activity counts for the day-night measure.
The Actiwatch data were analyzed to look at both changes in activity pattern temporally linked to treatment and changes in day/night activity.
To assess changes in activity linked to the treatment condition, hourly activity over a five hour period after dosing was calculated. The data were then analyzed with a repeated measures analysis of variance (ANOVA), with time post dosing (1-5 hours), treatment days (1-4 for each condition) and dose (control, 2, 6, and 20 mg/kg) as within subject variables. Test order served as a between subject variable in the initial analysis. To examine day night-activity levels, day and night activity levels were calculated for each 24-hr period. The data were first analyzed with a repeated measures ANOVA, with dose (control, 2, 6, and 20 mg/kg), treatment day (1-4 for each condition), and phase (day and night) as within-subject variables. Once again order served as a between-subject variable.
Post-dose activity patterns and twenty-four hour activity rhythms were assessed using the Actiwatch method, which detects alterations in activity and changes in phase of the activity cycle as described previously (Siwak et al. (2003) Circadian Activity Rhythms in Dogs Vary with Age and Cognitive Status. Behavioral Neuroscience, 111:813-824). Briefly, general activity patterns were monitored for 28 continuous days using the Mini-Mitter® Actiwatch-16® activity monitoring system (Mini-Mitter Co., Inc., Bend, Oreg.) adapted for dogs. The Actiwatch contained an activity sensory that was programmed to provide counts of total activity at 5 minute intervals. Putting the Actiwatch on a dog's collar allowed for recording uninterrupted patterns of activity and rest.
The first analysis of the Actiwatch data was intended to provide an overall picture of the post-dosing effect of the compound on behavioral activity. Accordingly, data for the 5-hour period following dosing was first segregated into 5 one-hour blocks. Thus, each subject's data for each treatment day consisted of 5 consecutive one-hour activity scores. The data were then analyzed with a repeated measures analysis of variance, with time post dosing (1-5 hours), treatment days (1-4 for each condition) and dose (control, 2, 6, and 20 mg/kg) as within subject variables. Test order served as between subject variables in the initial analysis. […]

Beagle Dogs [3] = experiment: Observation of abnormal behavioral responses / behavioral toxicity during study; format: in vivo, Canine; details: 2, 6 and 20 mg/kg
Excerpt: All dogs received veterinary examinations prior to initiation in the study. Over the course of the study, trained personnel recorded all adverse events and contacted the responsible veterinarian or study director when necessary.
The effect also appeared dependent on baseline activity level, the greater the baseline level the smaller the treatment effect.

Beagle Dogs [4] = experiment: Curiosity Test (exploratory behavior, open-field arena); format: in vivo, Canine; details: for rearing frequency, controls versus dose group: FIG. 10
Procedure: as §1, §2
After completing the control test block, each group received three doses of the test article in the order prescribed for that group. For each test block, subjects received their respective treatment for the first four days. On the fourth day of each test block, subjects were tested on the curiosity test twice; the first was one hour after article administration and the second was four hours after article administration. The remaining three days were considered washout days for each test block (Table 4).
For the curiosity test, each behavioral measure was analyzed individually using a repeated measures ANOVA with dose (control, 2, 6, and 20 mg/kg), test (first and second) as within-subject variables and order as a between-subject variable.
This is a test of exploratory behavior, which assesses both attention to environment and locomotor activity (Siwak et al. (2001) Effect of Age and Level of Cognitive Function on Spontaneous and Exploratory Behaviors in the Beagle Dog. Learning and Memory, 8:[…].). Subjects were placed in the open-field arena for a 10-minute period. Seven objects were placed in the arena and the subjects were permitted to freely explore the room and the objects.
The open field activity arena consisted of an empty test room (approximately 8′×10′) with strips of electrical tape applied to the floor in a grid pattern of rectangles to facilitate tracking. The floor of the test room was mopped prior to testing and between dogs to reduce olfactory cues from affecting testing. For tests conducted in the open field, the dogs were placed in the test room and their behavior was videotaped over a 10-minute period. On two of the test sessions, subjects were tested for 5 rather than 10 minutes. Accordingly, the data from those two dogs were not included in the initial analysis, which was carried out over all dose levels. However, all dogs were tested on the control and 20 mg/kg dose and a separate analysis was carried out comparing control and high dose treatments.
The movement pattern of the dog within the test room was recorded. In addition, keyboard keys were pressed to indicate the frequency of occurrence of the various behaviors including: sniffing, urinating, grooming, jumping, rearing, inactivity and vocalization. The software also provided a total measure of distance for loco-motor activity.
In addition to general activity, the interactions with the objects (picking-up, contacting, sniffing and urinating on the objects) were assessed and used as measures of exploratory behavior.

[5] = 2, 6 and 20 mg/kg, dihydrochloride

For C#CCN(C)[C@H](C)Cc1ccccc1 [Anipryl®], the “fraction of cases in which it does not work” value (dogs) is listed as “about ⅓”.

With Cc1ccc2c(c1)c1c(n2CCc2ccc(C)nc2)CCN(C)C1.Cl.Cl [dimebon, 2,8-dimethyl-5-(2-(6-methyl-3-pyridyl)-ethyl)-2,3,4,5-tetrahydro-1H-pyrido(4,3-b)indole dihydrochloride] the “ratio of day time activity to night time activity” value (Beagle Dogs [1]; 2 mg/kg, FIG. 6, did not achieve statistical significance) was “highest”, the “day:night activity ratio” value (Beagle Dogs [1]; 20 mg/kg) was “not altered” and the night time activity (Beagle Dogs [1]; 20 mg/kg) was “increased night time activity”. The “day/night activity as a function of dose” value (Beagle Dogs [1]; control, 2, 6, 20 mg/kg, did not achieve statistical significance, p=0.158556) was “overall dose-dependent increase in activity”, the “activity at 5 hours post-dosing compared to control” value (Beagle Dogs [2]; 6 mg/kg PO once daily, FIG. 1) was “generally higher” and the “activity as a function of dose and treatment day” value (Beagle Dogs [2]; 6 mg/kg) was “increased activity”. The “activity at 5 hours post-dosing compared to control” value (Beagle Dogs [2]; 20 mg/kg PO once daily, FIG. 1) was “generally higher”, the “activity as a function of dose and treatment day” value (Beagle Dogs [2]; 20 mg/kg) was “increased activity” and the “behavioral activity (summary)” value (Beagle Dogs [2]; [5]) was “trend towards an increase in activity with an increase in dosage; also recorded: moderate increase in behavioral activity”. For the same compound, the “total activity as a function of dose” value (Beagle Dogs [2]; control, 2, 6, 20 mg/kg, FIG. 3, not statistically significant, p=0.192360) was “dose-dependent increase in activity”, the “decrease of activity with time following treatment” value (Beagle Dogs [2]; two highest dose levels, FIG. 1) was “the decrease is smaller” and the behavioral toxicity (Beagle Dogs [3]) was “nor were there other indications of behavioral toxicity”. The stereotypical behavior (Beagle Dogs [3]) was “None of the dogs showed any stereotypical behavior”, the abnormal behavioral response (Beagle Dogs [3]; dihydrochloride) was “None of these results, however, is indicative of an abnormal behavioral response; also recorded: does not cause any obvious abnormal behavioral responses” and the “change of rearing frequency over the two tests” value (shortened to “change of rearing frequency”) (Beagle Dogs [4]; 2 mg/kg) was “decrease in rearing frequency”. The “object sniff frequency compared to control” value (Beagle Dogs [4]; 2 mg/kg, p=0.085660, FIG. 14) was “lower occurrence of object sniffing”, the “change of rearing frequency” value (Beagle Dogs [4]; 6 mg/kg) was “rearing frequency increased over the two tests” and the “change of rearing frequency” value (Beagle Dogs [4]; 20 mg/kg) was “rearing frequency increased over the two tests”. The exploratory behavior (Beagle Dogs [4]; 20 mg/kg) was “increase in exploratory behavior”, the “frequency of object pickup” value (Beagle Dogs [4]; 20 mg/kg compared to 2 mg/kg, p=0.10445, FIG. 12) was “greater frequency of picking up objects” and the “locomotor activity on the second curiosity test” value (Beagle Dogs [4]; 20 mg/kg, 4 h after administration) was “increased locomotor activity”. For the same compound, the “object contact duration compared to controls” value (Beagle Dogs [4]; 20 mg/kg, especially on the second test, FIG. 13) was “increased contact”, the duration of action (Beagle Dogs [4]; 20 mg/kg, manifested by locomotor activity on second curiosity test and night time activity) was “longest duration of action” and the “change of inactivity over the two tests” value (Beagle Dogs [4]; 20 mg/kg, secondary analysis control vs high dose, interaction p=0.098076, FIG. 11) was “decreased over the two tests”. For the same compound, the “change of object sniff frequency over the two tests” value (Beagle Dogs [4]; 20 mg/kg, secondary analysis, interaction p=0.061260, FIG. 16) was “object sniff frequency increased over the two tests”, the “locomotor activity on first and second test” value (Beagle Dogs [4]; 20 mg/kg, tests 1 h and 4 h after administration, FIG. 8) was “activity was increased on both tests” and the “effect on most behaviors in the exploratory behavior test” value (Beagle Dogs [4]; 2, 6 and 20 mg/kg) was “did not significantly affect most behaviors”. The “exploration (summary of exploratory behavior test)” value (Beagle Dogs [4]; [5]) was “generally increased; also recorded: dose-dependent trend towards increased exploration”, the “rearing frequency, dose effect, secondary analysis” value (Beagle Dogs [4]; control vs 20 mg/kg only, p=0.086315) was “marginally significant effect of dose” and the “locomotor activity, dose effect (ANOVA)” value (Beagle Dogs [4]; control, 2, 6, 20 mg/kg) was “not significant”. The “urination frequency, effect of treatment” value (Beagle Dogs [4]; control, 2, 6, 20 mg/kg, FIG. 9) was “no effects of treatment were found”, the “rearing frequency, dose effect (ANOVA)” value (Beagle Dogs [4]; control, 2, 6, 20 mg/kg, p=0.000846) was “significant dose effect” and the “object contact duration, dose effect (ANOVA)” value (Beagle Dogs [4]; control, 2, 6, 20 mg/kg, p=0.001384) was “significant dose effect”. The “object sniff frequency, dose effect (ANOVA)” value (Beagle Dogs [4]; control, 2, 6, 20 mg/kg, p=0.056856) was “marginally significant effect of dose”, the “object pick-up, dose effect (ANOVA)” value (Beagle Dogs [4]; control, 2, 6, 20 mg/kg, p=0.079968) was “marginally significant effect of dose” and the “rearing frequency, controls versus dose group” value (Beagle Dogs [4]; high dose group, p=0.025826) was “controls showing significantly less rearing”. The “rearing frequency, controls versus dose group” value (Beagle Dogs [4]; low dose group, p=0.0258) was “controls showing significantly less rearing”.
